The values below come from paper PMC12388126, “Photochemically Assisted Synthesis of Thienobenzotriazole-Based Dual Cholinesterase Inhibitors” (Molecules, 2025).

Series [1] has as its target T1, butyrylcholinesterase (BChE) (Equus caballus, UniProt P81908).
T1 construct: BChE (extracted from equine serum); purchased Sigma-Aldrich; host or cells: equine serum (natural source)
The series can be described thus: BChE inhibition, modified Ellman method. It is filed as biochemical. Here is the method: (§1) Building on the previously promising in vitro results of thienobenzo-1,2,3-triazolinium salts against cholinesterases, research was extended to a series of structurally related bromide salts. The inhibitory effects of a new set of triazolinium salts (1–4, 7–11, 14–17) on the activities of acetylcholinesterase (AChE) and butyrylcholinesterase (BChE) are summarized in Table 1. Their inhibitory activity was assessed using a modified Ellman method over a wide concentration range (0.01–250 μM). The IC50 values listed in Table 1 are relative IC50 values, obtained directly from the nonlinear regression analysis of the inhibition curves under defined test conditions. For reference, the inhibitory effect at the highest tested concentration is also reported. The results were compared with galantamine, a well-known cholinesterase inhibitor used in the treatment of Alzheimer’s disease.
(§2) The inhibitory effects of the new synthesized thiabenzo-1,2,3-triazolinium bromide salts, 1–4, 7–11, and 14–17, on acetylcholinesterase (AChE) and butyrylcholinesterase (BChE) activity were evaluated using the modified Ellman’s method.
(§3) DTNB, ATChI, and BTChI were prepared in 50 mM Tris buffer (pH 8.0), while the enzymes were made in 20 mM Tris buffer (pH 7.5). Using a 96-well microplate reader (Agilent, BioTek 800TS, Santa Clara, CA, USA), cholinesterase activity was assessed. Amounts of 180 μL of 50 mM Tris buffer, 10 μL of tested solutions with final concentrations ranging from 0.01 to 250 μM, and 10 μL of an enzyme with a final concentration of 0.03 U/mL were added to the microplate well, which was then left to incubate for 15 min at room temperature. Following incubation, 10 μL of DTNB (final concentration: 0.3 mM) and […] of ATChI/BTChI (final concentration: 0.5 mM) were added to the reaction mixture. After four minutes, the absorbance was measured at 405 nm. Non-enzymatic hydrolysis was assessed as a blank for the control measurement in the absence of inhibitors and enzymes. The samples were tested using the non-enzymatic hydrolysis procedure with an additional inhibitor as a blank. The enzyme was swapped out for the same amount of buffer.
(§4) The inhibition % was determined using the following formula: Inhibition (%) = [(AC − AT)/AC] × 100, where AC is the activity of the enzyme without a test sample and AT is the activity of the enzyme with a test sample. The mean values ± standard deviation are used to illustrate the results. Inhibitory activity of ethanol was deducted from each sample. A nonlinear fit of compound concentration values vs. response was used to determine the IC50 values. Each trazolinium salt was tested against both enzymes in triplicate.

In series [2] the target is acetylcholinesterase (AChE) (Electrophorus electricus, UniProt O42275). Put plainly: AChE inhibition, modified Ellman method. Particulars: for inhibition at 50 µM / inhibition at 100 µM / inhibition at 250 µM: read-out: AChE Inhibition (%); for IC50: relative IC50 from nonlinear regression, tested 0.01–250 μM. It counts as biochemical. Here is the method:
as §1, §2, §3, §4
For orientation: DTNB colorimetry detects thiols as they appear.

The test system of series [3] is LPS-stimulated TNFα production in PBMCs. Put plainly: TNFα production in LPS-stimulated PBMCs (ELISA). It is filed as cell-based, human. The method, then:
The potential anti-inflammatory activity of compounds 1–4, 7–11, and 14–17 was also evaluated in vitro by the measurement of TNFα production in LPS-stimulated PBMCs. […] At lower concentrations that were not affecting cell viability, LPS-induced TNFα production was not changed. […] Compound 17 was active only at the highest tested concentration.
The effect of compounds on tumor necrosis factor alpha (TNFα) production in lipopolysaccharide (LPS)-stimulated peripheral blood mononuclear cells (PBMCs) was evaluated as described previously. […]
(§5) For cell viability evaluation, CellTiter-Glo reagent was used (Promega, Radoboj, Croatia) according to the manufacturer’s instructions. […] TNFα concentration in supernatants was measured by ELISA using antibodies and recombinant human TNFα protein (standard) from R&D Systems. […] Finally, after the plates were incubated with streptavidin HRP (Invitrogen, Thermo Fisher Scientific, Waltham, MA, USA), chemiluminescence ELISA Substrate (Roche, Zagreb, Croatia) was added to the wells and luminescence was measured using EnVision 2105 multilabel reader (Revvity, Waltham, MA, USA). Concentrations of TNFα in the supernatants were calculated using measured luminescence by interpolation from standard curves. […]

Another series concerns BChE. Also on record: method as in PMID 40732321. The conditions noted are these: cited from earlier work.
The next series deals with PBMCs. The series can be described thus: Cell viability of PBMCs (CellTiter-Glo). It is filed as cell-based. Particulars: LPS-stimulated PBMCs, 24 h. The method, then:
The effect of compounds on tumor necrosis factor alpha (TNFα) production in lipopolysaccharide (LPS)-stimulated peripheral blood mononuclear cells (PBMCs) was evaluated as described previously. In short, PBMCs were isolated from buffy coats obtained from healthy adult volunteers and resuspended in RPMI1640 medium (Capricorn Scientific, Ebsdorfergrundu, Germany) supplemented with 10% heat-inactivated FBS (Biowest, Nuailléu, France), 1% GlutaMAX (Gibco, St. Louis, MO, USA), and 1% Antibiotic-Antimycotic (Gibco, St. Louis, MO, USA). PBMCs were seeded as 2 × 10^5 per well of a 96-well plate. […]
as §5
For orientation: ATP-based viability assays read luminescence as a measure of living cells.

The mark [4] stands for this setting: relative IC50 from nonlinear regression, tested 0.01–250 μM, read-out: BChE IC50.

Where two headings read alike, the source gives them in different places.

T1 sequence (P81908 whole entry): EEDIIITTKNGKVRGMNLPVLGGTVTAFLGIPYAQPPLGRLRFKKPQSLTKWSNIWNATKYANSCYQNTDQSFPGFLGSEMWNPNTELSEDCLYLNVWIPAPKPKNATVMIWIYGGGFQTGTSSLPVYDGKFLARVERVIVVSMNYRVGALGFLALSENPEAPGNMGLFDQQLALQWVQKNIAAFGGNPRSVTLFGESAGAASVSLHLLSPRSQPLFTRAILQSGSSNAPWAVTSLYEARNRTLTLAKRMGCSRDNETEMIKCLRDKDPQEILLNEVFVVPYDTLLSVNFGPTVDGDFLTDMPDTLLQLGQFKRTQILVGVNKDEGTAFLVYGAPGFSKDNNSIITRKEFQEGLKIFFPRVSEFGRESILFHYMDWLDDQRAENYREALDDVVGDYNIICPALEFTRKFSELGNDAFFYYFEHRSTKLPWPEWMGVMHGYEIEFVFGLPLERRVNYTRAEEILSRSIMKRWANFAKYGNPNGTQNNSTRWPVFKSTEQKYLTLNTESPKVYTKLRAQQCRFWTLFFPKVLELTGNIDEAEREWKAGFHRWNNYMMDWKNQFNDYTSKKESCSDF
acetylcholinesterase (AChE), sequence (O42275 24-633): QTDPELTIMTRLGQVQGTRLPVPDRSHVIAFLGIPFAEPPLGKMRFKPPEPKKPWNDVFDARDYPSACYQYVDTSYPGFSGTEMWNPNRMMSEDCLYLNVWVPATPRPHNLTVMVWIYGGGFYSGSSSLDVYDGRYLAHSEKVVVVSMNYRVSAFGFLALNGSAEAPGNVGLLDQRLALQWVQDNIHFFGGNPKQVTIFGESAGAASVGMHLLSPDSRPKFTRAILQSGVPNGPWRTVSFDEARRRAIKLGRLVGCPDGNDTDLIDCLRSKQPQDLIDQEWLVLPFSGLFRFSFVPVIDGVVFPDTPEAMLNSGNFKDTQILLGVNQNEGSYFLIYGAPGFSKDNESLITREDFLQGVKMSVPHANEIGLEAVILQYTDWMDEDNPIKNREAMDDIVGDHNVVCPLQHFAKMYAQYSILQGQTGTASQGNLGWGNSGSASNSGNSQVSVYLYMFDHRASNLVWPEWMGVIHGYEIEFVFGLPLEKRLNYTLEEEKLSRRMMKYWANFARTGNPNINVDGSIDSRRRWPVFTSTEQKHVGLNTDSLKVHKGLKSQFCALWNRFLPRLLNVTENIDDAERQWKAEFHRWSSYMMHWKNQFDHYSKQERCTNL

For the compound `Cc1cccc(Cn2n[n+](Cc3ccccc3)c3ccc4sccc4c32)c1` [Compound 1, 3-benzyl-1-(3-methylbenzyl)-1H-thieno[3′,2′:3.4]benzo[1.2-d][1.2,3]triazol-3-ium bromide], in series [1] (read-out: BChE Inhibition (%)), the inhibition at 25 µM was found to be 83.9 ± 0.2%. In addition, the figures for the IC50 in series [1] (setting [4]) and in series [2] were 400 nM and 6300 nM, respectively. Besides, the inhibition at 50 µM in series [2] came to 78.6 ± 0.5%.

Regarding `Cc1ccc(Cn2n[n+](Cc3ccc(C)cc3)c3ccc4sccc4c32)cc1` [Compound 9, 1.3-bis(4-methylbenzyl)-1H-thieno[3′,2′:3.4]benzo[1.2-d][1.2,3]triazol-3-ium bromide], in series [1] (read-out: BChE Inhibition (%)), the inhibition at 25 µM turned out to be 76.6 ± 0.4%. Also, the IC50 in series [1] (setting [4]) came out at 3500 nM. In series [2], the inhibition at 50 µM is 78.7 ± 0.6% and the IC50 was 5700 nM.

`C[C@@H]1C[C@H]2[C@@H]3CCC4=CC(=O)C=C[C@]4(C)[C@@]3(F)[C@@H](O)C[C@]2(C)[C@@]1(O)C(=O)CO` [dexamethasone, reference compound]: the IC50 in series [3] (Homo sapiens, PBMC, PBMCs from two donors, read-out: IC50, inhibition of LPS-stimulated TNFα production) was found to be 3.5 nM.

On to `Clc1cccc(Cn2n[n+](Cc3ccc(I)cc3)c3ccc4sccc4c32)c1` [Compound 4, 1-(3-chlorobenzyl)-3-(4-iodobenzyl)-1H-thieno[3′,2′:3.4]benzo[1.2-d][1.2,3]triazol-3-ium bromide], for which the inhibition at 25 µM in series [1] (read-out: BChE Inhibition (%)) is 83.2 ± 0.9%. The concentration for half-maximal inhibition (IC50) is 800 nM in series [1] (setting [4]) and 14200 nM in series [2]. Also, the inhibition at 50 µM in series [2] is 74.6 ± 5%.

With `COc1cccc(Cn2n[n+](Cc3ccc(Cl)cc3)c3ccc4sccc4c32)c1` [Compound 7, 3-(4-chlorobenzyl)-1-(3-methoxybenzyl)-1H-thieno[3′,2′:3.4]benzo[1.2-d][1.2,3]triazol-3-ium bromide], in series [1] (read-out: BChE Inhibition (%)), the inhibition at 10 µM is 78.2 ± 0.4%. Further, the 50% inhibitory concentration (IC50) in series [1] (setting [4]) worked out at 1000 nM. Also, in series [2], the inhibition at 100 µM amounted to 79.4 ± 4.9% and the IC50 was determined as 11800 nM.

Turning to `CC=Cn1n[n+](Cc2ccc(C)cc2)c2ccc3sccc3c21` [Compound 15, 3-(4-methylbenzyl)-1-(prop-1-en-1-yl)-1H-thieno[3′,2′:3.4]benzo[1.2-d][1.2,3]triazol-3-ium], the inhibition at 50 µM in series [1] (read-out: BChE Inhibition (%)) worked out at 84 ± 0.7%. The half-inhibitory concentration (IC50) in series [1] (setting [4]) turned out to be 900 nM. Moreover, in series [2], the inhibition at 250 µM amounted to 82.3 ± 0.8% and the midpoint of inhibition, the IC50, lay at 14400 nM.

For `Cc1cccc(Cn2n[n+](Cc3ccc(I)cc3)c3ccc4sccc4c32)c1` [Compound 3, 3-(4-iodobenzyl)-1-(3-methylbenzyl)-1H-thieno[3′,2′:3.4]benzo[1.2-d][1.2,3]triazol-3-ium bromide], the inhibition at 50 µM came to 84.9 ± 3.6% in series [1] (read-out: BChE Inhibition (%)) and 76.7 ± 0.5% in series [2]. For the same compound, the IC50 in series [1] (setting [4]) turned out to be 700 nM; in series [2], 5900 nM.

As for `Cc1ccc(Cn2n[n+](Cc3ccccc3)c3ccc4sccc4c32)cc1` [Compound 8, 3-benzyl-1-(4-methylbenzyl)-1H-thieno[3′,2′:3.4]benzo[1.2-d][1.2,3]triazol-3-ium bromide], the inhibition at 10 µM in series [1] (read-out: BChE Inhibition (%)) was 83.6 ± 1%. Besides, in series [1] (setting [4]), the half-inhibitory concentration (IC50) turned out to be 400 nM. Moreover, in series [2], the inhibition at 50 µM came to 80.7 ± 2.3% and half-maximal inhibition (IC50) was put at 2600 nM.

On to `C=CCn1n[n+](Cc2ccccc2)c2ccc3sccc3c21` [E], for which the IC50 with BChE was 98 nM.

Consider `Cc1ccc(Cn2n[n+](Cc3ccc([N+](=O)[O-])cc3)c3ccc4sccc4c32)cc1` [Compound 11, 1-(4-methylbenzyl)-3-(4-nitrobenzyl)-1H-thieno[3′,2′:3.4]benzo[1.2-d][1.2,3]triazol-3-ium bromide], for which the inhibition at 25 µM in series [1] (read-out: BChE Inhibition (%)) amounted to 81.1 ± 1.7%. For the same compound, the 50% inhibitory concentration (IC50) in series [1] (setting [4]) stood at 2700 nM. In series [2], the inhibition at 50 µM worked out at 83.6 ± 2.1% and the half-maximal inhibitory concentration (IC50) came to 3200 nM.

For `Cc1ccc(C[n+]2nn(Cc3cccc(C)c3)c3c4ccsc4ccc32)cc1` [Compound 2, 1-(3-methylbenzyl)-3-(4-methylbenzyl)-1H-thieno[3′,2′:3.4]benzo[1.2-d][1.2,3]triazol-3-ium bromide], in series [1] (read-out: BChE Inhibition (%)), the inhibition at 2.5 µM came to 77.6 ± 0.3%. Also, the concentration for half-maximal inhibition (IC50) in series [1] (setting [4]) is 300 nM. For the same compound, in series [2], the inhibition at 50 µM amounted to 82.1 ± 4.2% and the IC50 was found to be 4100 nM.

Consider `CC=Cn1n[n+](Cc2ccc([N+](=O)[O-])cc2)c2ccc3sccc3c21` [Compound 17, 3-(4-nitrobenzyl)-1-(prop-1-en-1-yl)-1H-thieno[3′,2′:3,4]benzo[1,2-d][1–3]triazol-3-ium], for which the inhibition at 100 µM in series [1] (read-out: BChE Inhibition (%)) is 85.5 ± 0.5%; in series [2], 62.6 ± 5.3%. The figures for the half-maximal inhibitory concentration (IC50) in series [1] (setting [4]) and in series [2] were 11400 nM and 63800 nM, respectively. In addition, the “effect on cell viability” value with PBMCs is “no effect on cell viability”. The “classification as AChE inhibitor” value in series [2] (in words) is given as “weak AChE inhibitor”. Moreover, in series [3] (PBMCs, starting concentration 100 µM, three-fold dilutions), the “effect on LPS-stimulated TNFα production” value is reported as “slightly inhibited LPS-stimulated TNFα production”.

Consider `CC=Cn1n[n+](Cc2ccc(Cl)cc2)c2ccc3sccc3c21` [Compound 16, 3-(4-chlorobenzyl)-1-(prop-1-en-1-yl)-1H-thieno[3′,2′:3,4]benzo[1,2-d][1–3]triazol-3-ium], for which the inhibition at 100 µM in series [1] (read-out: BChE Inhibition (%)) was determined as 84.8 ± 0.8%. Moreover, the IC50 in series [1] (setting [4]) is 2300 nM. In series [2], the inhibition at 250 µM amounted to 82.6 ± 1.1% and the half-maximal inhibitory concentration (IC50) was 5400 nM.

In series [1], `CC=Cn1n[n+](Cc2ccccc2)c2ccc3sccc3c21` [Compound 14, 3-benzyl-1-(prop-1-en-1-yl)-1H-thieno[3′,2′:3.4]benzo[1.2-d][1.2,3]triazol-3-ium bromide] came in with a 50% inhibitory concentration (IC50) of 1000 nM. Further, the inhibition at 25 µM in series [1] (read-out: BChE Inhibition (%)) came to 80.4 ± 2.9%. For the same compound, in series [2], the inhibition at 100 µM turned out to be 84.2 ± 0.5% and the IC50 is 4300 nM.

With `Cc1ccc(Cn2n[n+](Cc3ccc(Cl)cc3)c3ccc4sccc4c32)cc1` [Compound 10, 3-(4-chlorobenzyl)-1-(4-methylbenzyl)-1H-thieno[3′,2′:3.4]benzo[1.2-d][1.2,3]triazol-3-ium bromide], in series [1] (read-out: BChE Inhibition (%)), the inhibition at 25 µM was found to be 79.9 ± 1.1%. In addition, the IC50 in series [1] (setting [4]) is 1500 nM. In series [2], the inhibition at 100 µM is 81.9 ± 0.6% and the midpoint of inhibition, the IC50, lay at 6500 nM.

The term inhibition denotes the relative decrease from the control value, in per cent. One may read the IC50 as the point on the concentration scale where inhibition reaches its midpoint.
